# Patent publication US12049450B2, “Pyridyloxy-carboxylate derivative and preparation method therefor, herbicidal composition, and use” (Qingdao Kingagroot Chemical Compound Co., Ltd., priority 2018, dated 2024)
# Assays:
# Assay in all cases: Post-emergence test experiment (greenhouse pot, spray at 2-3 leaf stage)
# Format in all cases: in vivo
# Settings in all cases: 1000 g/ha; post-emergence spray at 2-3 leaf stage; assessed after 3 weeks; fresh weight inhibition rate
# Abutilon theophrasti = test system: Abutilon theophrasti
# Outline: (§1)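 Activity graded levels 0-5 by fresh-weight inhibition (level 5 above 85%, level 0 below 5%), assessed 3 weeks after treatment. Plants grown in greenhouse pots were sprayed post-emergence at 2-3 leaves using acetone/tween-80 solutions with methyl oleate synergist (1.5 L/ha).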
# Echinochloa crusgalli = test system: Echinochloa crusgalli
# Outline: as §1
# Digitaria sanguinalis = test system: Digitaria sanguinalis
# Outline: as §1
# Galium spurium = test system: Galium spurium
# Outline: as §1
# Monochoria vaginalis = test system: Monochoria vaginalis
# Outline: as §1
smiles,measurement,setting,value
Cc1sc(C)c(COC(=O)C(C)Oc2nc(F)c(Cl)c(N)c2Cl)c1C (centres unmarked) [Compound 155],Activity level (growth inhibition rate) Abutilon theophrasti,Abutilon theophrasti,5 (Level 5: the growth inhibition rate is greater than 85%)
same,Activity level (growth inhibition rate) Echinochloa crusgalli,Echinochloa crusgalli,5 (Level 5: the growth inhibition rate is greater than 85%)
same,Activity level (growth inhibition rate) Digitaria sanguinalis,Digitaria sanguinalis,5 (Level 5: the growth inhibition rate is greater than 85%)
same,Activity level (growth inhibition rate) Galium spurium,Galium spurium,5 (Level 5: the growth inhibition rate is greater than 85%)
same,Activity level (growth inhibition rate) Monochoria Vaginalis,Monochoria vaginalis,5 (Level 5: the growth inhibition rate is greater than 85%)
CC(Oc1nc(F)c(Cl)c(N)c1Cl)C(=O)SCc1nccs1 (centres unmarked) [Compound 156],Activity level (growth inhibition rate) Abutilon theophrasti,Abutilon theophrasti,5 (Level 5: the growth inhibition rate is greater than 85%)
same,Activity level (growth inhibition rate) Echinochloa crusgalli,Echinochloa crusgalli,5 (Level 5: the growth inhibition rate is greater than 85%)
same,Activity level (growth inhibition rate) Digitaria sanguinalis,Digitaria sanguinalis,5 (Level 5: the growth inhibition rate is greater than 85%)
same,Activity level (growth inhibition rate) Galium spurium,Galium spurium,5 (Level 5: the growth inhibition rate is greater than 85%)
same,Activity level (growth inhibition rate) Monochoria Vaginalis,Monochoria vaginalis,5 (Level 5: the growth inhibition rate is greater than 85%)
Cc1ncc(COC(=O)C(C)Oc2nc(F)c(Cl)c(N)c2Cl)s1 (centres unmarked) [Compound 157],Activity level (growth inhibition rate) Abutilon theophrasti,Abutilon theophrasti,5 (Level 5: the growth inhibition rate is greater than 85%)
same,Activity level (growth inhibition rate) Echinochloa crusgalli,Echinochloa crusgalli,5 (Level 5: the growth inhibition rate is greater than 85%)
same,Activity level (growth inhibition rate) Digitaria sanguinalis,Digitaria sanguinalis,5 (Level 5: the growth inhibition rate is greater than 85%)
same,Activity level (growth inhibition rate) Galium spurium,Galium spurium,5 (Level 5: the growth inhibition rate is greater than 85%)
same,Activity level (growth inhibition rate) Monochoria Vaginalis,Monochoria vaginalis,5 (Level 5: the growth inhibition rate is greater than 85%)
CC(Oc1nc(F)c(Cl)c(N)c1Cl)C(=O)OCc1cscn1 (centres unmarked) [Compound 158],Activity level (growth inhibition rate) Abutilon theophrasti,Abutilon theophrasti,5 (Level 5: the growth inhibition rate is greater than 85%)
same,Activity level (growth inhibition rate) Echinochloa crusgalli,Echinochloa crusgalli,5 (Level 5: the growth inhibition rate is greater than 85%)
same,Activity level (growth inhibition rate) Digitaria sanguinalis,Digitaria sanguinalis,5 (Level 5: the growth inhibition rate is greater than 85%)
same,Activity level (growth inhibition rate) Galium spurium,Galium spurium,5 (Level 5: the growth inhibition rate is greater than 85%)
same,Activity level (growth inhibition rate) Monochoria Vaginalis,Monochoria vaginalis,5 (Level 5: the growth inhibition rate is greater than 85%)
CC(Oc1nc(F)c(Cl)c(N)c1Cl)C(=O)SCc1cncs1 (centres unmarked) [Compound 159],Activity level (growth inhibition rate) Abutilon theophrasti,Abutilon theophrasti,5 (Level 5: the growth inhibition rate is greater than 85%)
same,Activity level (growth inhibition rate) Echinochloa crusgalli,Echinochloa crusgalli,5 (Level 5: the growth inhibition rate is greater than 85%)
same,Activity level (growth inhibition rate) Digitaria sanguinalis,Digitaria sanguinalis,5 (Level 5: the growth inhibition rate is greater than 85%)
same,Activity level (growth inhibition rate) Galium spurium,Galium spurium,5 (Level 5: the growth inhibition rate is greater than 85%)
same,Activity level (growth inhibition rate) Monochoria Vaginalis,Monochoria vaginalis,5 (Level 5: the growth inhibition rate is greater than 85%)
CC(Oc1nc(F)c(Cl)c(N)c1Cl)C(=O)OCc1ccns1 (centres unmarked) [Compound 160],Activity level (growth inhibition rate) Abutilon theophrasti,Abutilon theophrasti,5 (Level 5: the growth inhibition rate is greater than 85%)
same,Activity level (growth inhibition rate) Echinochloa crusgalli,Echinochloa crusgalli,5 (Level 5: the growth inhibition rate is greater than 85%)
same,Activity level (growth inhibition rate) Digitaria sanguinalis,Digitaria sanguinalis,5 (Level 5: the growth inhibition rate is greater than 85%)
same,Activity level (growth inhibition rate) Galium spurium,Galium spurium,5 (Level 5: the growth inhibition rate is greater than 85%)
same,Activity level (growth inhibition rate) Monochoria Vaginalis,Monochoria vaginalis,5 (Level 5: the growth inhibition rate is greater than 85%)
CC(Oc1nc(F)c(Cl)c(N)c1Cl)C(=O)SCc1ccsn1 (centres unmarked) [Compound 161],Activity level (growth inhibition rate) Abutilon theophrasti,Abutilon theophrasti,5 (Level 5: the growth inhibition rate is greater than 85%)
same,Activity level (growth inhibition rate) Echinochloa crusgalli,Echinochloa crusgalli,5 (Level 5: the growth inhibition rate is greater than 85%)
same,Activity level (growth inhibition rate) Digitaria sanguinalis,Digitaria sanguinalis,5 (Level 5: the growth inhibition rate is greater than 85%)
same,Activity level (growth inhibition rate) Galium spurium,Galium spurium,5 (Level 5: the growth inhibition rate is greater than 85%)
same,Activity level (growth inhibition rate) Monochoria Vaginalis,Monochoria vaginalis,5 (Level 5: the growth inhibition rate is greater than 85%)
CC(Oc1nc(F)c(Cl)c(N)c1Cl)C(=O)OCCc1cnsc1 (centres unmarked) [Compound 162],Activity level (growth inhibition rate) Abutilon theophrasti,Abutilon theophrasti,5 (Level 5: the growth inhibition rate is greater than 85%)
same,Activity level (growth inhibition rate) Echinochloa crusgalli,Echinochloa crusgalli,5 (Level 5: the growth inhibition rate is greater than 85%)
same,Activity level (growth inhibition rate) Digitaria sanguinalis,Digitaria sanguinalis,5 (Level 5: the growth inhibition rate is greater than 85%)
same,Activity level (growth inhibition rate) Galium spurium,Galium spurium,5 (Level 5: the growth inhibition rate is greater than 85%)
same,Activity level (growth inhibition rate) Monochoria Vaginalis,Monochoria vaginalis,5 (Level 5: the growth inhibition rate is greater than 85%)
CC(Oc1nc(F)c(Cl)c(N)c1Cl)C(=O)OCc1nccs1 (centres unmarked) [Compound 163],Activity level (growth inhibition rate) Abutilon theophrasti,Abutilon theophrasti,5 (Level 5: the growth inhibition rate is greater than 85%)
same,Activity level (growth inhibition rate) Echinochloa crusgalli,Echinochloa crusgalli,5 (Level 5: the growth inhibition rate is greater than 85%)
same,Activity level (growth inhibition rate) Digitaria sanguinalis,Digitaria sanguinalis,5 (Level 5: the growth inhibition rate is greater than 85%)
same,Activity level (growth inhibition rate) Galium spurium,Galium spurium,5 (Level 5: the growth inhibition rate is greater than 85%)
same,Activity level (growth inhibition rate) Monochoria Vaginalis,Monochoria vaginalis,5 (Level 5: the growth inhibition rate is greater than 85%)
CC(Oc1nc(F)c(Cl)c(N)c1Cl)C(=O)OCc1nncs1 (centres unmarked) [Compound 164],Activity level (growth inhibition rate) Abutilon theophrasti,Abutilon theophrasti,5 (Level 5: the growth inhibition rate is greater than 85%)
same,Activity level (growth inhibition rate) Echinochloa crusgalli,Echinochloa crusgalli,5 (Level 5: the growth inhibition rate is greater than 85%)
same,Activity level (growth inhibition rate) Digitaria sanguinalis,Digitaria sanguinalis,5 (Level 5: the growth inhibition rate is greater than 85%)
same,Activity level (growth inhibition rate) Galium spurium,Galium spurium,5 (Level 5: the growth inhibition rate is greater than 85%)
same,Activity level (growth inhibition rate) Monochoria Vaginalis,Monochoria vaginalis,5 (Level 5: the growth inhibition rate is greater than 85%)
CC(Oc1nc(F)c(Cl)c(N)c1Cl)C(=O)SCCc1ncsn1 (centres unmarked) [Compound 165],Activity level (growth inhibition rate) Abutilon theophrasti,Abutilon theophrasti,5 (Level 5: the growth inhibition rate is greater than 85%)
same,Activity level (growth inhibition rate) Echinochloa crusgalli,Echinochloa crusgalli,5 (Level 5: the growth inhibition rate is greater than 85%)
same,Activity level (growth inhibition rate) Digitaria sanguinalis,Digitaria sanguinalis,5 (Level 5: the growth inhibition rate is greater than 85%)
same,Activity level (growth inhibition rate) Galium spurium,Galium spurium,5 (Level 5: the growth inhibition rate is greater than 85%)
same,Activity level (growth inhibition rate) Monochoria Vaginalis,Monochoria vaginalis,5 (Level 5: the growth inhibition rate is greater than 85%)
CC(Oc1nc(F)c(Cl)c(N)c1Cl)C(=O)OCc1cnns1 (centres unmarked) [Compound 166],Activity level (growth inhibition rate) Abutilon theophrasti,Abutilon theophrasti,5 (Level 5: the growth inhibition rate is greater than 85%)
same,Activity level (growth inhibition rate) Echinochloa crusgalli,Echinochloa crusgalli,5 (Level 5: the growth inhibition rate is greater than 85%)
same,Activity level (growth inhibition rate) Digitaria sanguinalis,Digitaria sanguinalis,5 (Level 5: the growth inhibition rate is greater than 85%)
same,Activity level (growth inhibition rate) Galium spurium,Galium spurium,5 (Level 5: the growth inhibition rate is greater than 85%)
same,Activity level (growth inhibition rate) Monochoria Vaginalis,Monochoria vaginalis,5 (Level 5: the growth inhibition rate is greater than 85%)
CC(Oc1nc(F)c(Cl)c(N)c1Cl)C(=O)OCc1ncns1 (centres unmarked) [Compound 167],Activity level (growth inhibition rate) Abutilon theophrasti,Abutilon theophrasti,5 (Level 5: the growth inhibition rate is greater than 85%)
same,Activity level (growth inhibition rate) Echinochloa crusgalli,Echinochloa crusgalli,5 (Level 5: the growth inhibition rate is greater than 85%)
same,Activity level (growth inhibition rate) Digitaria sanguinalis,Digitaria sanguinalis,5 (Level 5: the growth inhibition rate is greater than 85%)
same,Activity level (growth inhibition rate) Galium spurium,Galium spurium,5 (Level 5: the growth inhibition rate is greater than 85%)
same,Activity level (growth inhibition rate) Monochoria Vaginalis,Monochoria vaginalis,5 (Level 5: the growth inhibition rate is greater than 85%)
